Experimental data: ChEMBL document CHEMBL1275354, “Anticonvulsant activity of 2,4(1H)-diarylimidazoles in mice and rats acute seizure models” (Bioorg Med Chem, 2010)
The source made the active and inactive calls. The calls are words filed in the database; no cut-off is given here.

Assays:
Mus musculus [1] = experiment: Anticonvulsant activity in albino CF1 mouse assessed as protection against subcutaneous metrazole-induced seizures at 100 mg/kg, ip after 0.5 hrs; assay type: functional, organism-based; design: dose 100 mg/kg
Mus musculus [2] = experiment: Neurotoxicity in albino CF1 mouse assessed as minimal motor impairment at 300 mg/kg, ip after 0.5 hrs by rotarod test; assay type: toxicity, organism-based; design: dose 300 mg/kg, route intraperitoneal; conditions: in vivo
Mus musculus [3] = experiment: Anticonvulsant activity against subcutaneous metrazole-induced seizures in ip dosed albino CF1 mouse assessed as minimum effective dose after 0.5 hrs; assay type: functional; conditions: albino CF1, 0.5 h, read-out: MED
Mus musculus [4] = experiment: Anticonvulsant activity in albino CF1 mouse assessed as protection against subcutaneous metrazole-induced seizures at 300 mg/kg, ip after 0.5 hrs; assay type: functional, organism-based; design: dose 300 mg/kg
Mus musculus [5] = experiment: Anticonvulsant activity in albino CF1 mouse assessed as protection against subcutaneous metrazole-induced seizures at 100 mg/kg, ip after 4 hrs; assay type: functional, organism-based; design: dose 100 mg/kg
Mus musculus [6] = experiment: Neurotoxicity in albino CF1 mouse assessed as minimal motor impairment at 30 mg/kg, ip after 0.5 hrs by rotarod test; assay type: toxicity, organism-based; design: dose 30 mg/kg, route intraperitoneal; conditions: in vivo
Mus musculus [7] = experiment: Anticonvulsant activity in albino CF1 mouse assessed as protection against maximal electroshock-induced seizures at 300 mg/kg, ip after 0.5 hrs; assay type: functional, organism-based; design: dose 300 mg/kg
Mus musculus [8] = experiment: Anticonvulsant activity in albino CF1 mouse assessed as protection against maximal electroshock-induced seizures at 300 mg/kg, ip after 4 hrs; assay type: functional, organism-based; design: dose 300 mg/kg
Mus musculus [9] = experiment: Anticonvulsant activity in albino CF1 mouse assessed as protection against maximal electroshock-induced seizures at 30 mg/kg, ip after 4 hrs; assay type: functional, organism-based; design: dose 30 mg/kg
Mus musculus [10] = experiment: Anticonvulsant activity against subcutaneous metrazole-induced seizures in ip dosed albino CF1 mouse assessed as minimum effective dose after 4 hrs; assay type: functional; conditions: albino CF1, 4 h, read-out: MED
Mus musculus [11] = experiment: Neurotoxicity in ip dosed albino CF1 mouse assessed as minimum dose required to cause toxicity after 0.5 hrs by rotarod test; assay type: organism-based; conditions: in vivo
Mus musculus [12] = experiment: Neurotoxicity in albino CF1 mouse assessed as minimal motor impairment at 100 mg/kg, ip after 4 hrs by rotarod test; assay type: toxicity, organism-based; design: dose 100 mg/kg, route intraperitoneal; conditions: in vivo
Mus musculus [13] = experiment: Neurotoxicity in albino CF1 mouse assessed as minimal motor impairment at 30 to 300 mg/kg, ip after 0.5 hrs by rotarod test; conditions: in vivo
Mus musculus [14] = experiment: Neurotoxicity in albino CF1 mouse assessed as minimal motor impairment at 300 mg/kg, ip after 4 hrs by rotarod test; assay type: toxicity, organism-based; design: dose 300 mg/kg, route intraperitoneal; conditions: in vivo
Mus musculus [15] = experiment: Neurotoxicity in albino CF1 mouse assessed as minimal motor impairment at 30 to 300 mg/kg, po after 4 hrs by rotarod test; assay type: toxicity, organism-based; design: dose 30-300 mg/kg, route oral; conditions: in vivo
Mus musculus [16] = experiment: Neurotoxicity in albino CF1 mouse assessed as minimal motor impairment at 100 mg/kg, ip after 0.5 hrs by rotarod test; assay type: toxicity, organism-based; design: dose 100 mg/kg, route intraperitoneal; conditions: in vivo
Mus musculus [17] = experiment: Anticonvulsant activity in albino CF1 mouse assessed as protection against subcutaneous metrazole-induced seizures at 30 mg/kg, ip after 4 hrs; assay type: functional, organism-based; design: dose 30 mg/kg
Mus musculus [18] = experiment: Anticonvulsant activity in albino CF1 mouse assessed as protection against maximal electroshock-induced seizures at 30 mg/kg, ip after 0.5 hrs; assay type: functional, organism-based; design: dose 30 mg/kg
Mus musculus [19] = experiment: Anticonvulsant activity against maximal electroshock-induced seizures in ip dosed albino CF1 mouse assessed as minimum effective dose after 4 hrs; assay type: functional; conditions: read-out: MED
Mus musculus [20] = experiment: Anticonvulsant activity in albino CF1 mouse assessed as protection against subcutaneous metrazole-induced seizures at 30 mg/kg, ip after 0.5 hrs; assay type: functional, organism-based; design: dose 30 mg/kg
Mus musculus [21] = experiment: Anticonvulsant activity against maximal electroshock-induced seizures in ip dosed albino CF1 mouse assessed as minimum effective dose after 0.5 hrs; assay type: functional; conditions: read-out: MED
Mus musculus [22] = experiment: Neurotoxicity in albino CF1 mouse assessed as minimal motor impairment at 30 mg/kg, ip after 4 hrs by rotarod test; assay type: toxicity, organism-based; design: dose 30 mg/kg, route intraperitoneal; conditions: in vivo
Mus musculus [23] = experiment: Neurotoxicity in ip dosed albino CF1 mouse assessed as minimum dose required to cause toxicity after 4 hrs by rotarod test; assay type: organism-based; conditions: in vivo
Mus musculus [24] = experiment: Anticonvulsant activity in albino CF1 mouse assessed as protection against maximal electroshock-induced seizures at 100 mg/kg, ip after 4 hrs; assay type: functional, organism-based; design: dose 100 mg/kg
Mus musculus [25] = experiment: Anticonvulsant activity in albino CF1 mouse assessed as protection against subcutaneous metrazole-induced seizures at 300 mg/kg, ip after 4 hrs; assay type: functional, organism-based; design: dose 300 mg/kg
Mus musculus [26] = experiment: Anticonvulsant activity in albino CF1 mouse assessed as protection against maximal electroshock-induced seizures at 100 mg/kg, ip after 0.5 hrs; assay type: functional, organism-based; design: dose 100 mg/kg

Structure (SMILES) | Activity (Mus musculus [1]) | Activity (Mus musculus [2]) | minimal effective dose (Mus musculus [3]) | Activity (Mus musculus [4]) | Activity (Mus musculus [5]) | Activity (Mus musculus [6]) | Activity (Mus musculus [7]) | Activity (Mus musculus [8]) | Activity (Mus musculus [9]) | minimal effective dose (Mus musculus [10]) | MED (Mus musculus [11]) | Activity (Mus musculus [12]) | Activity (Mus musculus [13]) | Activity (Mus musculus [14]) | Activity (Mus musculus [17]) | minimal effective dose (Mus musculus [19]) | Activity (Mus musculus [20]) | minimal effective dose (Mus musculus [21]) | Activity (Mus musculus [22]) | MED (Mus musculus [23]) | further results
O=[N+]([O-])c1ccc(-c2nc(-c3ccccc3)c[nH]2)cc1 | inactive | Non-toxic | > 300 mg/kg | inactive | inactive | Non-toxic | Active | Active | inactive | 100 mg/kg | > 300 mg/kg | Non-toxic | Non-toxic | Non-toxic | inactive | 100 mg/kg | inactive | 100 mg/kg | Non-toxic | > 300 mg/kg | Activity (Mus musculus [15]): Non-toxic; Activity (Mus musculus [16]): Non-toxic; Activity (Mus musculus [18]): inactive
O=[N+]([O-])c1ccc(-c2c[nH]c(-c3ccccc3)n2)cc1 | inactive | Non-toxic | > 300 mg/kg | inactive | inactive | Non-toxic | Active | Active | inactive | > 300 mg/kg | > 300 mg/kg | Non-toxic | Non-toxic | Non-toxic | inactive | 100 mg/kg | inactive | 100 mg/kg | Non-toxic | > 300 mg/kg | Activity (Mus musculus [24]): inactive; Activity (Mus musculus [15]): Non-toxic; Activity (Mus musculus [16]): Non-toxic; Activity (Mus musculus [18]): inactive; Activity (Mus musculus [25]): inactive
c1ccc(-c2c[nH]c(-c3ccncc3)n2)cc1 | inactive | Toxic | > 300 mg/kg | inactive | inactive | Non-toxic | Active | Active | inactive | > 300 mg/kg | 100 mg/kg | Non-toxic | Non-toxic | Toxic | inactive | 100 mg/kg | inactive | 100 mg/kg | Non-toxic | 100 mg/kg | Activity (Mus musculus [18]): inactive
c1ccc(-c2c[nH]c(-c3ccco3)n2)cc1 | inactive | Toxic | > 300 mg/kg | inactive | inactive | Non-toxic | Active | Active | inactive | > 300 mg/kg | 100 mg/kg | Non-toxic | Non-toxic | Toxic | inactive | 100 mg/kg | inactive | 100 mg/kg | Non-toxic | 100 mg/kg | Activity (Mus musculus [24]): inactive; Activity (Mus musculus [16]): Non-toxic; Activity (Mus musculus [18]): inactive; Activity (Mus musculus [25]): inactive
FC(F)(F)c1cccc(-c2c[nH]c(-c3cccc(C(F)(F)F)c3)n2)c1 | inactive | Non-toxic | > 300 mg/kg | inactive | inactive | Non-toxic | inactive | Active | inactive | > 300 mg/kg | > 300 mg/kg | Non-toxic | Non-toxic | Non-toxic | inactive | 100 mg/kg | inactive | > 300 mg/kg | Non-toxic | > 300 mg/kg | Activity (Mus musculus [26]): inactive; Activity (Mus musculus [15]): Non-toxic; Activity (Mus musculus [16]): Non-toxic; Activity (Mus musculus [25]): inactive
c1ccc(-c2c[nH]c(-c3ccoc3)n2)cc1 | inactive | Toxic | > 300 mg/kg |  | inactive | Non-toxic | Active |  | inactive | > 300 mg/kg | 100 mg/kg | Non-toxic | Non-toxic | Toxic | inactive | > 300 mg/kg | inactive | 100 mg/kg | Non-toxic | > 100 mg/kg | Activity (Mus musculus [24]): inactive; Activity (Mus musculus [15]): Non-toxic; Activity (Mus musculus [18]): inactive
